These results are taken from ChEMBL document CHEMBL1201862, “PubChem BioAssay data set” (2004).

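A five-concentration, 48-hour dose response in 96-well plates underlies each endpoint, interpolated linearly between surrounding concentrations. GI50 is the concentration that inhibits growth by half.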 Activity calls are given as the source filed them. No stated cut-off is given here; in the data, active = GI50 up to about 1.1 µM and inactive = higher.

Test systems include NCI-H522; A498; RXF 393; OVCAR-4; MCF7; MOLT-4; SF-268; CCRF-CEM; SK-MEL-5; ACHN; HOP-62; HL-60; K562; M14; DU-145; EKVX; KM12; OVCAR-5; SF-539; PC-3.
Common to all, as to experiment: growth of human tumour cells (NCI), 48 h

Take `COc1cccc(/N=N/N2CCCC2)c1`: the GI50 in the assay on NCI-H522, with A498, in the assay with RXF 393, in the assay on OVCAR-4, in the assay with MCF7 and in the assay with MOLT-4 was > 100 µM (inactive) throughout. In addition, the GI50 in the assay on SF-268 was > 100 µM (inactive); in the assay on CCRF-CEM, > 100 µM (inactive); in the assay with SK-MEL-5, > 100 µM (inactive); with ACHN, > 100 µM (inactive); in the assay on HOP-62, > 100 µM (inactive); in the assay with HL-60, 34.6 µM (inactive). For the same molecule, the GI50 with K562 is > 100 µM (inactive); with M14, > 100 µM (inactive); in the assay on DU-145, > 100 µM (inactive); with EKVX, > 100 µM (inactive); in the assay on KM12, 9.46 µM (inactive); in the assay with OVCAR-5, > 100 µM (inactive). In addition, the GI50 with SF-539 was > 100 µM (inactive); in the assay with PC-3, 27.2 µM (inactive).

Turning to `CC1=C(C(=O)NNC(=O)c2ccccc2)CC(C(=O)NNC(=O)c2ccccc2)=C(C)N1`, the GI50 with NCI-H522, with A498, in the assay on RXF 393, in the assay on OVCAR-4, with MCF7 and with MOLT-4 was > 100 µM (inactive) throughout. Further, the GI50 in the assay with SF-268, in the assay with CCRF-CEM, in the assay on SK-MEL-5, in the assay on ACHN, in the assay on HOP-62 and in the assay on HL-60 was > 100 µM (inactive) throughout. Also, the GI50 with K562, in the assay on M14, in the assay on DU-145, with EKVX, in the assay on KM12 and in the assay on OVCAR-5 was > 100 µM (inactive) throughout. The GI50 in the assay with SF-539 and with PC-3 was > 100 µM (inactive) each time.

As for `c1ccc(-c2nn(-c3ccccc3)[n+](-c3ccccc3)n2)cc1` [TETRAZOLIUM RED], the GI50 in the assay on NCI-H522 is > 37.9 µM (inactive); with A498, > 74.6 µM (inactive); in the assay with RXF 393, 11.6 µM (inactive); with OVCAR-4, 2.01 µM (inactive); in the assay with MCF7, 2.88 µM (inactive); with MOLT-4, 19.1 µM (inactive). The GI50 with SF-268 was 14.5 µM (inactive); in the assay on CCRF-CEM, 0.718 µM (active); in the assay with SK-MEL-5 it was 3.49 µM (inactive); in the assay on ACHN, > 78 µM (inactive); in the assay on HOP-62, 19.5 µM (inactive); in the assay with HL-60, 0.184 µM (active). Also, the GI50 in the assay with K562 was 18.6 µM (inactive); in the assay with M14, 10.7 µM (inactive); in the assay with DU-145 it was > 48.5 µM (inactive); with EKVX, 2.4 µM (inactive); in the assay with KM12 it was 11.3 µM (inactive); with OVCAR-5, 35.7 µM (inactive). Also, the values for the GI50 in the assay with SF-539 and in the assay on PC-3 were 33 µM (inactive) and 3.83 µM (inactive), respectively.

On to `NS(=O)(=O)c1ccc(NC(=O)N/N=C/c2ccccc2O)cc1`, for which the GI50 with NCI-H522 was 22.4 µM (inactive); with A498 it was > 100 µM (inactive); in the assay with RXF 393, > 100 µM (inactive); in the assay on OVCAR-4, > 100 µM (inactive); in the assay with MCF7, 58.2 µM (inactive); with MOLT-4 it was 37.7 µM (inactive). Also, the GI50 in the assay with SF-268 is 49 µM (inactive); in the assay on CCRF-CEM, 36.1 µM (inactive); with SK-MEL-5, 46.3 µM (inactive); with ACHN, > 100 µM (inactive); in the assay on HOP-62 it was 50.7 µM (inactive); in the assay on HL-60 it was 27.2 µM (inactive). Moreover, the GI50 with K562 is 40.8 µM (inactive); in the assay on M14, 36.8 µM (inactive); in the assay with DU-145 it was > 100 µM (inactive); in the assay with EKVX, > 100 µM (inactive); with KM12 it was 33.7 µM (inactive); with OVCAR-5, > 100 µM (inactive). Further, the GI50 in the assay on SF-539 was 41.9 µM (inactive); in the assay with PC-3, > 100 µM (inactive).

Regarding `O=C(O)CC1OCC=C2CN3CCC45C6=CC(=O)C(O)=C([N+](=O)[O-])C6=NC4C1C2CC35` (stereo not given), the GI50 in the assay on NCI-H522 was > 100 µM (inactive); with A498, > 100 µM (inactive); in the assay with RXF 393 it was > 100 µM (inactive); with OVCAR-4, > 100 µM (inactive); in the assay on MCF7, > 100 µM (inactive); in the assay on MOLT-4, 89.5 µM (inactive). For the same molecule, the GI50 with SF-268 is > 100 µM (inactive); with CCRF-CEM, 18.1 µM (inactive); in the assay with SK-MEL-5, > 100 µM (inactive); with ACHN, > 100 µM (inactive); in the assay on HOP-62, > 100 µM (inactive); with HL-60, 52 µM (inactive). Moreover, the GI50 in the assay with K562 is 92.3 µM (inactive); in the assay with M14, > 100 µM (inactive); in the assay on DU-145 it was > 100 µM (inactive); in the assay with EKVX, > 100 µM (inactive); in the assay on KM12, > 100 µM (inactive); with OVCAR-5 it was > 100 µM (inactive). Further, the GI50 in the assay on SF-539 and with PC-3 was > 100 µM (inactive) throughout.

For `CC1=C/C(=N\N(C)C)C(C(O)(C(F)(F)F)C(F)(F)F)C(C)(C)C1` (stereo not given), the GI50 in the assay on NCI-H522 is > 100 µM (inactive); in the assay on A498, > 100 µM (inactive); in the assay with RXF 393, > 100 µM (inactive); in the assay on OVCAR-4 it was > 100 µM (inactive); in the assay with MCF7, > 100 µM (inactive); in the assay on MOLT-4, 97.1 µM (inactive). Further, the GI50 with SF-268 is > 100 µM (inactive); in the assay with CCRF-CEM it was > 100 µM (inactive); with SK-MEL-5, 80.2 µM (inactive); with ACHN, > 100 µM (inactive); in the assay with HOP-62 it was > 100 µM (inactive); in the assay on HL-60, > 100 µM (inactive). The GI50 with K562, in the assay on M14, in the assay on DU-145, in the assay with EKVX, in the assay with KM12 and in the assay with OVCAR-5 was > 100 µM (inactive) throughout. The figures for the GI50 in the assay on SF-539 and in the assay on PC-3 were > 100 µM (inactive) and 73.6 µM (inactive), respectively.

Regarding `COc1ccc2nc3cc([N+](=O)[O-])ccc3c(NNc3ccc([N+](=O)[O-])cc3)c2c1`, the GI50 is 29.3 µM (inactive) with NCI-H522; 0.0951 µM (active) with A498; 44.1 µM (inactive) in the assay on RXF 393; 57.4 µM (inactive) with OVCAR-4; 4.01 µM (inactive) with MCF7; 25.5 µM (inactive) in the assay on MOLT-4. For the same molecule, the GI50 was 54.7 µM (inactive) in the assay with SF-268; 30.8 µM (inactive) in the assay with CCRF-CEM; 19.8 µM (inactive) with SK-MEL-5; 46.9 µM (inactive) in the assay with ACHN; 57.3 µM (inactive) in the assay with HOP-62; 20.3 µM (inactive) with HL-60. In addition, the GI50 is 7.19 µM (inactive) in the assay on K562; 43.4 µM (inactive) in the assay on M14; 47.8 µM (inactive) in the assay on DU-145; 44.1 µM (inactive) with EKVX; 24.5 µM (inactive) with KM12; 3.91 µM (inactive) in the assay on OVCAR-5. Further, the figures for the GI50 in the assay on SF-539 and with PC-3 were 45.6 µM (inactive) and 22.4 µM (inactive), respectively.
